From patent publication US9315503B2, “Kinase inhibitors” (CHIESI FARMACEUTICI S.p.A., priority 2011, dated 2016)
Where a name gives a salt, the structure may show the parent alone.

How the values were obtained:
p38alpha = target: T1, p38alpha (Homo sapiens, UniProt Q16539); assay: P38Alpha enzyme inhibition assay (Alphascreen kinase activity assay); assay type: biochemical; details: 100 pM p38alpha, 250 μM ATP, 2 hours pre-incubation at 25° C., read-out: p38α inhibition (IC50 values)
T1 construct: purchased Invitrogen PV3304
How it was run: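 AlphaScreen read-out: after an EDTA stop, an anti-phospho-ATF2 antibody with Protein A acceptor and donor beads measured substrate phosphorylation. Compounds sat 2 h at 25°C with 100 pM p38α and 0.3 µg/ml ATF-2 fusion protein (pH 7.5, 1% DMSO) before 250 µM ATP was added for 1 h. IC50 from dose-response.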

[1] = tested on: LPS-stimulated TNFα release from PBMCs; assay: LPS-stimulated PBMC TNFα release assay; assay type: cell-based; details: inhibition of TNFα release, human PBMCs, LPS 10 ng/ml, 18 h, ELISA, read-out: p38α inhibition (IC50 values)
Description: LPS-Stimulated PBMC TNFα Release Assay.
Peripheral Blood Mononuclear Cells (PBMCs) were isolated from healthy human volunteer blood using a standard density gradient centrifugation technique. Citrated blood was placed onto Histopaque™ and centrifuged. The PBMCs were removed from the density gradient interface and washed in phosphate buffered saline (PBS). The PBMCs were suspended in RPMI 1640 medium (without serum), dispensed into a 96-well plate and incubated at 37° C. for 3 h in a humidified incubator. After incubation, the medium was replaced (with medium containing 1% foetal bovine serum) and the plate incubated at 37° C., for 1 h, in the presence of test compound or the appropriate vehicle. LPS (10 ng/ml), or an appropriate vehicle control, was then added to the cells and the plate returned to the incubator for 18 h. Cell-free supernatants were removed and assayed for TNFα levels using an ELISA kit from R&D Systems.
A dose response curve to each test compound was performed and the effect of compound in each experiment was expressed as a percentage inhibition of the control TNFα release. Dose response curves were plotted and compound potency (IC50) was determined. Compounds were tested in at least three separate experiments.

T1 sequence (Q16539 whole entry): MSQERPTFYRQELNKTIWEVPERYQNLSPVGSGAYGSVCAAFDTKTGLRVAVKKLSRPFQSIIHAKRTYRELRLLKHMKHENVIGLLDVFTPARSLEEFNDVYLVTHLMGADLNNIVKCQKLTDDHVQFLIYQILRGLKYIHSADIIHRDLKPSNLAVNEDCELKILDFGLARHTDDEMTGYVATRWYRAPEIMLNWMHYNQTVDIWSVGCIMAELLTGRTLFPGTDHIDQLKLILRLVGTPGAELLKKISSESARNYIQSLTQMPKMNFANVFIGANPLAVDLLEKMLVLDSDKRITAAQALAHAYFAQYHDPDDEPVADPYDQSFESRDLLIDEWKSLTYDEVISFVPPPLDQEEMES

Compound | IC50 (p38alpha) [nM] | IC50 [1] [nM]
Cc1ccc(-n2nc(C(C)(C)C)cc2NC(=O)N[C@H]2CC[C@@H](Oc3cc(C)c4nnc([C@@H]5CCCN5C)n4c3)c3ccccc32)cc1 [Example 105, 1-(5-tert-Butyl-2-p-tolyl-2H-pyrazol-3-yl)-3-{(1S,4R)-4-[8-methyl-3-((S)-1-methyl-pyrrolidin-2-yl)-[1,2,4]triazolo[4,3-a]pyridin-6-yloxy]-1,2,3,4-tetrahydro-naphthalen-1-yl}-urea] | < 10 | < 10
Cc1ccc(-n2nc(C(C)(C)C)cc2NC(=O)N[C@H]2CC[C@@H](Oc3ccc4nnc([C@@H]5CCCN5C(C)C)n4c3)c3ccccc32)cc1 [Example 58, 1-(5-tert-Butyl-2-p-tolyl-2H-pyrazol-3-yl)-3-{(1S,4R)-4-[3-((S)-1-isopropyl-pyrrolidin-2-yl)-[1,2,4]triazolo[4,3-a]pyridin-6-yloxy]-1,2,3,4-tetrahydro-naphthalen-1-yl}-urea] | < 10 | < 10
Cc1ccc(-n2nc(C(C)(C)C)cc2NC(=O)N[C@H]2CC[C@@H](Oc3ccc4nnc(N5CCC[C@H](O)C5)n4c3)c3ccccc32)cc1 [Example 63, 1-(5-tert-Butyl-2-p-tolyl-2H-pyrazol-3-yl)-3-{(1S,4R)-4-[3-((S)-3-hydroxy-piperidin-1-yl)-[1,2,4]triazolo[4,3-a]pyridin-6-yloxy]-1,2,3,4-tetrahydro-naphthalen-1-yl}-urea] | < 10 | < 10
CC(C)(C)c1cc(NC(=O)N[C@H]2CC[C@@H](Oc3ccc4nnc(N5CCCCC5)n4c3)c3ccccc32)n(-c2ccc(O)cc2)n1 [Example 70, 1-[5-tert-Butyl-2-(4-hydroxy-phenyl)-2H-pyrazol-3-yl]-3-[(1S,4R)-4-(3-piperidin-1-yl-[1,2,4]triazolo[4,3-a]pyridin-6-yloxy)-1,2,3,4-tetrahydro-naphthalen-1-yl]-urea] | < 10 | < 10
Cc1ccc(-n2nc(C(C)(C)C)cc2NC(=O)N[C@H]2CC[C@@H](Oc3ccc4nnc(N5CCC[C@@H](O)C5)n4c3)c3ccccc32)cc1 [Example 64, 1-(5-tert-Butyl-2-p-tolyl-2H-pyrazol-3-yl)-3-{(1S,4R)-4-[3-((R)-3-hydroxy-piperidin-1-yl)-[1,2,4]triazolo[4,3-a]pyridin-6-yloxy]-1,2,3,4-tetrahydro-naphthalen-1-yl}-urea] | < 10 | < 10
Cc1ccc(-n2nc(C(C)(C)C)cc2NC(=O)N[C@H]2CC[C@@H](Oc3ccc4nnc(N5CCC[C@@H](CO)C5)n4c3)c3ccccc32)cc1 [Example 77, 1-(5-tert-Butyl-2-p-tolyl-2H-pyrazol-3-yl)-3-{(1S,4R)-4-[3-((R)-3-hydroxymethyl-piperidin-1-yl)-[1,2,4]triazolo[4,3-a]pyridin-6-yloxy]-1,2,3,4-tetrahydro-naphthalen-1-yl}-urea] | < 10 | < 10
CC(C)(C)c1cc(NC(=O)N[C@H]2CC[C@@H](Oc3ccc4nnc(N5CCCCC5)n4c3)c3ccccc32)n(-c2cccc(SCCO)c2)n1 [Example 53, 1-{5-tert-Butyl-2-[3-(2-hydroxy-ethylsulfanyl)-phenyl]-2H-pyrazol-3-yl}-3-[(1S,4R)-4-(3-piperidin-1-yl-[1,2,4]triazolo[4,3-a]pyridin-6-yloxy)-1,2,3,4-tetrahydro-naphthalen-1-yl]-urea] | < 10 | < 10
Cc1ccc(-n2nc(C(C)(C)C)cc2NC(=O)N[C@H]2CC[C@@H](Oc3ccc4nnc([C@@H]5CCN(C)C5)n4c3)c3ccccc32)cc1 [Example 90, 1-(5-tert-Butyl-2-p-tolyl-2H-pyrazol-3-yl)-3-{(1S,4R)-4-[3-((R)-1-methyl-pyrrolidin-3-yl)-[1,2,4]triazolo[4,3-a]pyridin-6-yloxy]-1,2,3,4-tetrahydro-naphthalen-1-yl}-urea] | < 10 | < 10
Cc1ccc(-n2nc(C(C)(C)C)cc2NC(=O)N[C@H]2CC[C@@H](Oc3ccc4nnc(C(C)(C)N(C)C)n4c3)c3ccccc32)cc1 [Example 76, 1-(5-tert-Butyl-2-p-tolyl-2H-pyrazol-3-yl)-3-{(1S,4R)-4-[3-(1-dimethylamino-1-methyl-ethyl)-[1,2,4]triazolo[4,3-a]pyridin-6-yloxy]-1,2,3,4-tetrahydro-naphthalen-1-yl}-urea partial formate salt] | < 10 | < 10
Cc1ccc(-n2nc(C(C)(C)C)cc2NC(=O)N[C@H]2CC[C@@H](Oc3ccc4nnc(N5CCCCCC5)n4c3)c3ccccc32)cc1 [Example 67, 1-[(1S,4R)-4-(3-Azepan-1-yl-[1,2,4]triazolo[4,3-a]pyridin-6-yloxy)-1,2,3,4-tetrahydro-naphthalen-1-yl]-3-(5-tert-butyl-2-p-tolyl-2H-pyrazol-3-yl)-urea] | < 10 | < 10
CN1CCC[C@H]1c1nnc2ccc(O[C@@H]3CC[C@H](NC(=O)Nc4cc(C(C)(C)C)nn4-c4ccc(CO)cc4)c4ccccc43)cn12 [Example 33, 1-[5-tert-Butyl-2-(4-hydroxymethyl-phenyl)-2H-pyrazol-3-yl]-3-{(1S,4R)-4-[3-((S)-1-methyl-pyrrolidin-2-yl)-[1,2,4]triazolo[4,3-a]pyridin-6-yloxy]-1,2,3,4-tetrahydro-naphthalen-1-yl}urea] | < 10 | < 10

Further lines, with some results ahead:

IC50 (p38alpha) [nM] | Compound | IC50 [1] [nM]
< 10 | Cc1ccc(-n2nc(C(C)(C)C)cc2NC(=O)N[C@H]2CC[C@@H](Oc3ccc4nnc(N5[C@H](C)CCC[C@@H]5C)n4c3)c3ccccc32)cc1 [Example 100, 1-(5-tert-Butyl-2-p-tolyl-2H-pyrazol-3-yl)-3-{(1S,4R)-4-[3-((2S,6R)-2,6-dimethyl-piperidin-1-yl)-[1,2,4]triazolo[4,3-a]pyridin-6-yloxy]-1,2,3,4-tetrahydro-naphthalen-1-yl}-urea] | < 10
< 10 | C[C@@H]1CCC[C@H](C)N1c1nnc2ccc(O[C@@H]3CC[C@H](NC(=O)Nc4cc(C(C)(C)C)nn4CCN4CCOCC4)c4ccccc43)cn12 [Example 121, 1-[5-tert-Butyl-2-(2-morpholin-4-yl-ethyl)-2H-pyrazol-3-yl]-3-{(1S,4R)-4-[3-((2S,6R)-2,6-dimethyl-piperidin-1-yl)-[1,2,4]triazolo[4,3-a]pyridin-6-yloxy]-1,2,3,4-tetrahydro-naphthalen-1-yl}-urea] | < 10
< 10 | C[C@H]1CCCCN1c1nnc2ccc(O[C@@H]3CC[C@H](NC(=O)Nc4cc(C(C)(C)C)nn4-c4cccc(CN5CCN(C)CC5)c4)c4ccccc43)cn12 [Example 98, 1-{5-tert-Butyl-2-[3-(4-methyl-piperazin-1-ylmethyl)-phenyl]-2H-pyrazol-3-yl}-3-{(1S,4R)-4-[3-((S)-2-methyl-piperidin-1-yl)-[1,2,4]triazolo[4,3-a]pyridin-6-yloxy]-1,2,3,4-tetrahydro-naphthalen-1-yl}-urea formate salt] | < 10
< 10 | C[C@@H]1CCC[C@H](C)N1c1nnc2ccc(O[C@@H]3CC[C@H](NC(=O)Nc4cc(F)cc(N5CCOCC5)c4)c4ccccc43)cn12 [Example 115, 1-{(1S,4R)-4-[3-((2S,6R)-2,6-Dimethyl-piperidin-1-yl)-[1,2,4]triazolo[4,3-a]pyridin-6-yloxy]-1,2,3,4-tetrahydro-naphthalen-1-yl}-3-(3-fluoro-5-morpholin-4-yl-phenyl)-urea] | < 10
< 10 | C[C@@H]1CCC[C@H](C)N1c1nnc2ccc(O[C@@H]3CC[C@H](NC(=O)Nc4cc(C(C)(C)C)nn4-c4cnn(CCN5CCOCC5)c4)c4ccccc43)cn12 [Example 124, 1-[3-tert-Butyl-1′-(2-morpholin-4-yl-ethyl)-1′H-[1,4′]bipyrazolyl-5-yl]-3-((1S,4R)-4-[3-((2S,6R)-2,6-dimethyl-piperidin-1-yl)-[1,2,4]triazolo[4,3-a]pyridin-6-yloxy]-1,2,3,4-tetrahydro-naphthalen-1-yl)-urea formate salt] | < 10
< 10 | Cc1ccc(-n2nc(C(C)(C)C)cc2NC(=O)N[C@H]2CC[C@@H](Oc3ccc4nnc(N5CCCC[C@@H]5C)n4c3)c3ccccc32)cc1 [Example 81, 1-(5-tert-Butyl-2-p-tolyl-2H-pyrazol-3-yl)-3-{(1S,4R)-4-[3-((S)-2-methyl-piperidin-1-yl)-[1,2,4]triazolo[4,3-a]pyridin-6-yloxy]-1,2,3,4-tetrahydro-naphthalen-1-yl}-urea] | < 10
< 10 | C[C@H]1CCCCN1c1nnc2ccc(O[C@@H]3CC[C@H](NC(=O)Nc4cc(C(C)(C)C)nn4-c4cccc(CN5CCOCC5)c4)c4ccccc43)cn12 [Example 97, 1-[5-tert-Butyl-2-(3-morpholin-4-ylmethyl-phenyl)-2H-pyrazol-3-yl]-3-{(1S,4R)-4-[3-((S)-2-methyl-piperidin-1-yl)-[1,2,4]triazolo[4,3-a]pyridin-6-yloxy]-1,2,3,4-tetrahydro-naphthalen-1-yl}-urea formate salt] | < 10
